Measurements from patent US10131652B2, “Pyrimidinyloxy benzene derivatives as herbicides” (E. I. DU PONT DE NEMOURS AND COMPANY, priority 2014, dated 2018).

Tests used:
Experiment in all cases: Test F pre-/postemergence plant response
Format in all cases: in vivo
Settings in all cases: scale 0 to 100
[1] = tested on: green foxtail (Setaria viridis)
Outline: (§1)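 Seeds were sown in silt loam soil and sprayed preemergence; separately, plants at the 1- to 4-leaf stage (2 to 18 cm) received postemergence sprays. Test chemicals were in a non-phytotoxic solvent mixture with surfactant. After 14 to 21 days in a greenhouse, injury was visually rated 0 (no effect) to 100 (complete control) against untreated controls.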

[2] = tested on: field bindweed (Convolvulus arvensis)
Outline: as §1

[3] = tested on: nightshade (eastern black nightshade, Solanum ptycanthum)
Outline: as §1

[4] = tested on: arrowleaf sida (Sida rhombifolia)
Outline: as §1

[5] = tested on: wild poinsettia (Euphorbia heterophylla)
Outline: as §1

[6] = tested on: fall panicum (Panicum dichotomiflorum)
Outline: as §1

[7] = tested on: johnsongrass (Sorghum halepense)
Outline: as §1

[8] = tested on: goosegrass (Eleusine indica)
Outline: as §1

[9] = tested on: palmer pigweed (Amaranthus palmeri)
Outline: as §1

[10] = tested on: velvetleaf (Abutilon theophrasti)
Outline: as §1

kochia (Kochia scoparia) = tested on: kochia (Kochia scoparia)
Outline: as §1

corn (Zea mays) = tested on: corn (Zea mays)
Outline: as §1

[11] = tested on: waterhemp (common waterhemp, Amaranthus rudis)
Outline: as §1

[12] = tested on: ragweed (common ragweed, Ambrosia elatior)
Outline: as §1

[13] = tested on: yellow nutsedge (Cyperus esculentus)
Outline: as §1

[14] = tested on: hairy beggarticks (Bidens pilosa)
Outline: as §1

SMILES: FC(F)c1cc(-c2c(Cl)cccc2Oc2ncc(Cl)cn2)no1 [Compound 179]
- Plant response rating, Foxtail, Green ([1]; 16 g ai/ha Preemergence): 0
- Plant response rating, Foxtail, Green ([1]; 31 g ai/ha Preemergence): 0
- Plant response rating, Foxtail, Green ([1]; 125 g ai/ha Preemergence): 15
- Plant response rating, Foxtail, Green ([1]; Preemergence): 0
- Plant response rating, Field Bindweed ([2]; 16 g ai/ha Postemergence): 15
- Plant response rating, Field Bindweed ([2]; 16 g ai/ha Preemergence): 0
- Plant response rating, Field Bindweed ([2]; 31 g ai/ha Postemergence): 25
- Plant response rating, Field Bindweed ([2]; 31 g ai/ha Preemergence): 0
- Plant response rating, Field Bindweed ([2]; 62 g ai/ha Postemergence): 35
- Plant response rating, Field Bindweed ([2]; 62 g ai/ha Preemergence): 0
- Plant response rating, Field Bindweed ([2]; 125 g ai/ha Postemergence): 50
- Plant response rating, Field Bindweed ([2]; 125 g ai/ha Preemergence): 0
- Plant response rating, Nightshade ([3]; 31 g ai/ha Preemergence): 65
- Plant response rating, Nightshade ([3]; 125 g ai/ha Preemergence): 100
- Plant response rating, Nightshade ([3]; Preemergence): 100
- Plant response rating, Arrowleaf Sida ([4]; 16 g ai/ha Postemergence): 70
- Plant response rating, Arrowleaf Sida ([4]; 16 g ai/ha Preemergence): 0
- Plant response rating, Arrowleaf Sida ([4]; 31 g ai/ha Postemergence): 80
- Plant response rating, Arrowleaf Sida ([4]; 31 g ai/ha Preemergence): 80
- Plant response rating, Arrowleaf Sida ([4]; 62 g ai/ha Postemergence): 85
- Plant response rating, Arrowleaf Sida ([4]; 62 g ai/ha Preemergence): 80
- Plant response rating, Arrowleaf Sida ([4]; 125 g ai/ha Postemergence): 100
- Plant response rating, Arrowleaf Sida ([4]; 125 g ai/ha Preemergence): 90
- Plant response rating, Poinsettia, Wild ([5]; 16 g ai/ha Postemergence): 15
- Plant response rating, Poinsettia, Wild ([5]; 16 g ai/ha Preemergence): 0
- Plant response rating, Poinsettia, Wild ([5]; 31 g ai/ha Postemergence): 15
- Plant response rating, Poinsettia, Wild ([5]; 31 g ai/ha Preemergence): 0
- Plant response rating, Poinsettia, Wild ([5]; 62 g ai/ha Postemergence): 20
- Plant response rating, Poinsettia, Wild ([5]; 125 g ai/ha Postemergence): 35
- Plant response rating, Poinsettia, Wild ([5]; 125 g ai/ha Preemergence): 0
- Plant response rating, Poinsettia, Wild ([5]; Preemergence): 0
- Plant response rating, Panicum, Fall ([6]; 16 g ai/ha Postemergence): 15
- Plant response rating, Panicum, Fall ([6]; 16 g ai/ha Preemergence): 0
- Plant response rating, Panicum, Fall ([6]; 31 g ai/ha Postemergence): 10
- Plant response rating, Panicum, Fall ([6]; 31 g ai/ha Preemergence): 0
- Plant response rating, Panicum, Fall ([6]; 62 g ai/ha Postemergence): 15
- Plant response rating, Panicum, Fall ([6]; 125 g ai/ha Postemergence): 10
- Plant response rating, Panicum, Fall ([6]; 125 g ai/ha Preemergence): 75
- Plant response rating, Panicum, Fall ([6]; Preemergence): 50
- Plant response rating, Johnsongrass ([7]; 16 g ai/ha Preemergence): 0
- Plant response rating, Johnsongrass ([7]; 31 g ai/ha Preemergence): 0
- Plant response rating, Johnsongrass ([7]; 125 g ai/ha Preemergence): 10
- Plant response rating, Johnsongrass ([7]; Preemergence): 10
- Plant response rating, Goosegrass ([8]; 16 g ai/ha Preemergence): 0
- Plant response rating, Goosegrass ([8]; 31 g ai/ha Preemergence): 0
- Plant response rating, Goosegrass ([8]; 125 g ai/ha Preemergence): 0
- Plant response rating, Goosegrass ([8]; Preemergence): 0
- Plant response rating, Pigweed, Palmer ([9]; 16 g ai/ha Postemergence): 70
- Plant response rating, Pigweed, Palmer ([9]; 16 g ai/ha Preemergence): 0
- Plant response rating, Pigweed, Palmer ([9]; 31 g ai/ha Postemergence): 90
- Plant response rating, Pigweed, Palmer ([9]; 31 g ai/ha Preemergence): 0
- Plant response rating, Pigweed, Palmer ([9]; 62 g ai/ha Postemergence): 85
- Plant response rating, Pigweed, Palmer ([9]; 125 g ai/ha Postemergence): 85
- Plant response rating, Pigweed, Palmer ([9]; 125 g ai/ha Preemergence): 65
- Plant response rating, Pigweed, Palmer ([9]; Preemergence): 35
- Plant response rating, Velvetleaf ([10]; 16 g ai/ha Preemergence): 15
- Plant response rating, Velvetleaf ([10]; 31 g ai/ha Preemergence): 65
- Plant response rating, Velvetleaf ([10]; 125 g ai/ha Preemergence): 100
- Plant response rating, Velvetleaf ([10]; Preemergence): 90
- Plant response rating, Kochia (kochia (Kochia scoparia); 16 g ai/ha Postemergence): 65
- Plant response rating, Kochia (kochia (Kochia scoparia); 16 g ai/ha Preemergence): 0
- Plant response rating, Kochia (kochia (Kochia scoparia); 31 g ai/ha Postemergence): 75
- Plant response rating, Kochia (kochia (Kochia scoparia); 31 g ai/ha Preemergence): 0
- Plant response rating, Kochia (kochia (Kochia scoparia); 62 g ai/ha Postemergence): 90
- Plant response rating, Kochia (kochia (Kochia scoparia); 125 g ai/ha Postemergence): 95
- Plant response rating, Kochia (kochia (Kochia scoparia); 125 g ai/ha Preemergence): 98
- Plant response rating, Kochia (kochia (Kochia scoparia); Preemergence): 70
- Plant response rating, Corn (corn (Zea mays); 16 g ai/ha Postemergence): 5
- Plant response rating, Corn (corn (Zea mays); 16 g ai/ha Preemergence): 0
- Plant response rating, Corn (corn (Zea mays); 31 g ai/ha Postemergence): 0
- Plant response rating, Corn (corn (Zea mays); 31 g ai/ha Preemergence): 0
- Plant response rating, Corn (corn (Zea mays); 62 g ai/ha Postemergence): 10
- Plant response rating, Corn (corn (Zea mays); 62 g ai/ha Preemergence): 0
- Plant response rating, Corn (corn (Zea mays); 125 g ai/ha Postemergence): 15
- Plant response rating, Corn (corn (Zea mays); 125 g ai/ha Preemergence): 40
- Plant response rating, Waterhemp ([11]; 16 g ai/ha Postemergence): 70
- Plant response rating, Waterhemp ([11]; 16 g ai/ha Preemergence): 95
- Plant response rating, Waterhemp ([11]; 31 g ai/ha Postemergence): 95
- Plant response rating, Waterhemp ([11]; 31 g ai/ha Preemergence): 95
- Plant response rating, Waterhemp ([11]; 62 g ai/ha Postemergence): 95
- Plant response rating, Waterhemp ([11]; 125 g ai/ha Postemergence): 100
- Plant response rating, Waterhemp ([11]; 125 g ai/ha Preemergence): 100
- Plant response rating, Waterhemp ([11]; Preemergence): 100
- Plant response rating, Ragweed ([12]; 16 g ai/ha Postemergence): 45
- Plant response rating, Ragweed ([12]; 16 g ai/ha Preemergence): 0
- Plant response rating, Ragweed ([12]; 31 g ai/ha Postemergence): 40
- Plant response rating, Ragweed ([12]; 31 g ai/ha Preemergence): 0
- Plant response rating, Ragweed ([12]; 62 g ai/ha Postemergence): 40
- Plant response rating, Ragweed ([12]; 125 g ai/ha Postemergence): 50
- Plant response rating, Ragweed ([12]; 125 g ai/ha Preemergence): 0
- Plant response rating, Ragweed ([12]; Preemergence): 0
- Plant response rating, Nutsedge, Yellow ([13]; 16 g ai/ha Preemergence): 0
- Plant response rating, Nutsedge, Yellow ([13]; 31 g ai/ha Preemergence): 0
- Plant response rating, Nutsedge, Yellow ([13]; 125 g ai/ha Preemergence): 0
- Plant response rating, Nutsedge, Yellow ([13]; Preemergence): 0
- Plant response rating, Beggarticks ([14]; 16 g ai/ha Postemergence): 20
- Plant response rating, Beggarticks ([14]; 16 g ai/ha Preemergence): 0
- Plant response rating, Beggarticks ([14]; 31 g ai/ha Postemergence): 50
- Plant response rating, Beggarticks ([14]; 31 g ai/ha Preemergence): 0
- Plant response rating, Beggarticks ([14]; 62 g ai/ha Postemergence): 40
- Plant response rating, Beggarticks ([14]; 62 g ai/ha Preemergence): 0
- Plant response rating, Beggarticks ([14]; 125 g ai/ha Postemergence): 50
- Plant response rating, Beggarticks ([14]; 125 g ai/ha Preemergence): 0
